In patent publication US20080153800A1, “NOVEL CRYSTALLINE COMPOUND” (AstraZeneca AB, priority 2006, published 2008):

Tests used:
[1] = Conversion of the crystalline form in aqueous media; type: physicochemical
From the text: International patent application PCT/GB2006/002471 (WO2007/007041) discloses the Agent in 2 different crystalline forms (Example 39k). […] This form will hereinafter be referred to as Form A′. The preparation of Form A is also described in the Example hereinafter.
This form of the Agent will hereinafter be referred to as Form B.

[2] = Competitive slurries of Form A and Form B in a range of solvents; type: physicochemical
From the text: Form B also has a much higher melting endotherm.

Q: Which “conversion to other forms in aqueous media” value [1] does the source give for `CC(C)Oc1cc(Oc2cnc(C(=O)N3CCC3)cn2)cc(C(=O)Nc2cc[nH]n2)c1` [Form A, 3-{[5-(Azetidin-1-ylcarbonyl)pyrazin-2-yl]oxy}-5-[(1-methylethyl)oxy]-N-1H-pyrazol-3-ylbenzamide] here?
A: convert to the amorphous form

Q: Which “conversion to other forms in aqueous media” value [1] does the source give for `CC(C)Oc1cc(Oc2cnc(C(=O)N3CCC3)cn2)cc(C(=O)Nc2cc[nH]n2)c1` [Form A′, 3-{[5-(azetidin-1-ylcarbonyl)pyrazin-2-yl]oxy}-5-[(1-methylethyl)oxy]-N-1H-pyrazol-3-ylbenzamide] here?
A: convert to the amorphous form

Q: What does the source list for `CC(C)Oc1cc(Oc2cnc(C(=O)N3CCC3)cn2)cc(C(=O)Nc2cc[nH]n2)c1` [Form B, 3-{[5-(azetidin-1-ylcarbonyl)pyrazin-2-yl]oxy}-5-[(1-methylethyl)oxy]-N-1H-pyrazol-3-ylbenzamide]?
A: relative stability of crystalline forms in competitive slurries [2]: most stable form; conversion to other forms in aqueous media [1]: does not significantly convert to other forms
